In general, DC50 refers to the concentration at which degradation of the target reaches its halfway point. Read a low DC50 as degradation at low concentration. The term Dmax denotes the greatest extent of degradation seen.

This experiment addresses T1, IRAK4 (Homo sapiens, UniProt Q9NWZ3).
T1 construct: C-terminal HiBiT-tagged Jurkat cells (polyclonal cell line or clone 8D5); endogenous in cells; host or cells: Jurkat cells (polyclonal cell line or clone 8D5), HiBiT-tagged
T1 sequence (Q9NWZ3 1-460): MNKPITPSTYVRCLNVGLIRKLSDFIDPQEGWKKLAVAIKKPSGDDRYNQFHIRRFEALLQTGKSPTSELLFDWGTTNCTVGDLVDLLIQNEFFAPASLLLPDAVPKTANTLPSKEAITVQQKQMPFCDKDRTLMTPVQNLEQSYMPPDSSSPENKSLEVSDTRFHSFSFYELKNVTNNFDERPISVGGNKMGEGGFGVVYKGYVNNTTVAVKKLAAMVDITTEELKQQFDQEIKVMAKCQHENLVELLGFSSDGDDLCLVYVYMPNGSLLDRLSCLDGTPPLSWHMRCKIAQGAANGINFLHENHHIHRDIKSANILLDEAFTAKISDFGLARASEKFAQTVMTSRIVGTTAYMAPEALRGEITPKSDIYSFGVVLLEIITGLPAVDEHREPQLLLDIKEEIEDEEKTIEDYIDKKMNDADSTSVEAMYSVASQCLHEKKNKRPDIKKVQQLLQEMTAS
As to the kind of experiment: IRAK4 Degradation HiBit Assay. The conditions noted are these: C-terminal HiBiT-tagged Jurkat cells, 4 hrs incubation; for DC50: % IRAK4 remaining, four-parameter fit (IC50 used as DC50); for Dmax: from fit of % IRAK4 remaining. Type of experiment: cell-based. The method in brief:
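Degradation was quantified by luminescence after adding lytic detection reagent containing LgBiT to HiBiT-tagged Jurkat cells (polyclonal or clone 8D5). Cells were treated 4 h at 32 °C across 11 concentrations from 10 μM to 0.1 nM final. Four-parameter curve fitting of % IRAK4 remaining versus DMSO gave DC50 and Dmax.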
For orientation: With HiBiT, luminescence reflects the tagged protein that the partner subunit can reach.

Like-named read-outs stand apart in the source and are kept apart here.

`N#Cc1cnn2c(-c3cc(NC4CCOCC4)c(-c4nnc(C56CCC(CN7CCC(c8ccc(C9CCC(=O)NC9=O)cn8)CC7)(CC5)CC6)s4)cn3)ccc2c1` (racemic) [Example 23, rac-7-[5-(5-{4-[(4-{5-[(3R)-2,6-dioxopiperidin-3-yl]pyridin-2-yl}piperidin-1-yl)methyl]bicyclo[2.2.2]octan-1-yl}-1,3,4-thiadiazol-2-yl)-4-[(oxan-4-yl)amino]pyridin-2-yl]pyrrolo[1,2-b]pyridazine-3-carbonitrile] yielded a DC50 of 18 nM. Moreover, the Dmax (read-out: Dmax) worked out at 90%.

The compound `N#Cc1cnn2c(-c3cc(NC4CCOCC4)c(-c4nnc(N5CCN(CC6CCN(c7ccc(N8CCC(=O)NC8=O)cc7)CC6)CC5)s4)cn3)ccc2c1` [Example 60, 7-(5-{5-[4-({1-[4-(2,4-dioxo-1,3-diazinan-1-yl)phenyl]piperidin-4-yl}methyl)piperazin-1-yl]-1,3,4-thiadiazol-2-yl}-4-[(oxan-4-yl)amino]pyridin-2-yl)pyrrolo[1,2-b]pyridazine-3-carbonitrile] displayed a DC50 of 16 nM. Further, the Dmax (read-out: Dmax) amounted to 86%.

Compound `N#Cc1cnn2c(-c3cc(NC4CCOCC4)c(-c4nnc(N5CCN(C(=O)CN6CCN(c7cc(C8CCC(=O)NC8=O)ccn7)CC6)CC5)s4)cn3)ccc2c1` (racemic) [Example 15, rac-7-[5-(5-{4-[2-(4-{4-[(3R)-2,6-dioxopiperidin-3-yl]pyridin-2-yl}piperazin-1-yl)acetyl]piperazin-1-yl}-1,3,4-thiadiazol-2-yl)-4-[(oxan-4-yl)amino]pyridin-2-yl]pyrrolo[1,2-b]pyridazine-3-carbonitrile] displayed a DC50 of 15 nM. The Dmax (read-out: Dmax) worked out at 60%.

On to `N#Cc1cnn2c(-c3cc(NC4CCOCC4)c(-c4nnc(N5CCN(CCC6CCN(c7ccc(C8CCC(=O)NC8=O)cn7)CC6)CC5)s4)cn3)ccc2c1` (racemic) [Example 14, rac-7-[5-(5-{4-[2-(1-{5-[(3R)-2,6-dioxopiperidin-3-yl]pyridin-2-yl}piperidin-4-yl)ethyl]piperazin-1-yl}-1,3,4-thiadiazol-2-yl)-4-[(oxan-4-yl)amino]pyridin-2-yl]pyrrolo[1,2-b]pyridazine-3-carbonitrile], for which it took 70 nM to reach half-maximal degradation (DC50). In addition, under “read-out: Dmax”, the Dmax amounted to 81%.

With `N#Cc1cnn2c(-c3cc(NC4CCOCC4)c(-c4nnc(C56CCC(CN7CCN(c8ccc(C9CCC(=O)NC9=O)cn8)CC7)(CC5)CC6)s4)cn3)ccc2c1` (racemic) [Example 26, rac-7-[5-(5-{4-[(4-{5-[(3R)-2,6-dioxopiperidin-3-yl]pyridin-2-yl}piperazin-1-yl)methyl]bicyclo[2.2.2]octan-1-yl}-1,3,4-thiadiazol-2-yl)-4-[(oxan-4-yl)amino]pyridin-2-yl]pyrrolo[1,2-b]pyridazine-3-carbonitrile], half-maximal degradation (DC50) was put at 120 nM. Moreover, the Dmax (read-out: Dmax) turned out to be 80%.

With `N#Cc1cnn2c(-c3cc(NC4CCOCC4)c(-c4nnc(N5CCN(C[C@H]6[C@H]7CN(c8ccc(C9CCC(=O)NC9=O)cn8)C[C@@H]67)CC5)s4)cn3)ccc2c1` (mixture of isomers) [Example 100, 7-{5-[5-(4-{[(1RS&,5SR&,6RS&)-3-{5-[(3RS)-2,6-dioxopiperidin-3-yl]pyridin-2-yl}-3-azabicyclo[3.1.0]hexan-6-yl]methyl}piperazin-1-yl)-1,3,4-thiadiazol-2-yl]-4-[(oxan-4-yl)amino]pyridin-2-yl}pyrrolo[1,2-b]pyridazine-3-carbonitrile], half-maximal degradation (DC50) was put at 20 nM and the Dmax was found to be 95%.

Turning to `N#Cc1cnn2c(-c3cc(NC4CCOCC4)c(-c4nnc(C56CCC(C(=O)N7CCc8cc(N9CCC(=O)NC9=O)ccc8C7)(CC5)CC6)s4)cn3)ccc2c1` [Example 63, 7-[5-(5-{4-[6-(2,4-dioxo-1,3-diazinan-1-yl)-1,2,3,4-tetrahydroisoquinoline-2-carbonyl]bicyclo[2.2.2]octan-1-yl}-1,3,4-thiadiazol-2-yl)-4-[(oxan-4-yl)amino]pyridin-2-yl]pyrrolo[1,2-b]pyridazine-3-carbonitrile], half-maximal degradation (DC50) was put at 29 nM. In addition, the Dmax (read-out: Dmax) came out at 95%.

For `N#Cc1cnn2c(-c3cc(NC4CCOCC4)c(-c4nnc(N5CCN(CC6CCN(c7ccc(N8CCC(=O)NC8=O)cn7)CC6)CC5)s4)cn3)ccc2c1` [Example 28, 7-(5-{5-[4-({1-[5-(2,4-dioxo-1,3-diazinan-1-yl)pyridin-2-yl]piperidin-4-yl}methyl)piperazin-1-yl]-1,3,4-thiadiazol-2-yl}-4-[(oxan-4-yl)amino]pyridin-2-yl)pyrrolo[1,2-b]pyridazine-3-carbonitrile], half-maximal degradation (DC50) was put at 15 nM. The Dmax (read-out: Dmax) was 107%.

`N#Cc1cnn2c(-c3cc(NC4CCOCC4)c(-c4nnc(N5CC6CCC(C5)N6CC5CCN(c6ccc(N7CCC(=O)NC7=O)cn6)CC5)s4)cn3)ccc2c1` [Example 86, 7-(5-{5-[8-({1-[5-(2,4-dioxo-1,3-diazinan-1-yl)pyridin-2-yl]piperidin-4-yl}methyl)-3,8-diazabicyclo[3.2.1]octan-3-yl]-1,3,4-thiadiazol-2-yl}-4-[(oxan-4-yl)amino]pyridin-2-yl)pyrrolo[1,2-b]pyridazine-3-carbonitrile] had a DC50 of 12 nM. Moreover, the Dmax (read-out: Dmax) amounted to 111%.

In turn, `CNc1cc(-c2ccc3cc(C#N)cnn23)ncc1-c1nnc(N2CCN(CC3CCN(c4ccc([C@H]5CCC(=O)NC5=O)cn4)CC3)CC2)s1` (single isomer, unassigned) [Example 41] showed a DC50 of 1050 nM. In addition, the Dmax (read-out: Dmax) was 83%.

The compound `CNc1cc(-c2ccc3cc(C#N)cnn23)ncc1-c1nnc(C2CCN(CC3CCN(c4ccc(C5CCC(=O)NC5=O)cn4)CC3)CC2)s1` (racemic) [Example 81, rac-7-[5-(5-{1-[(1-{5-[(3R)-2,6-dioxopiperidin-3-yl]pyridin-2-yl}piperidin-4-yl)methyl]piperidin-4-yl}-1,3,4-thiadiazol-2-yl)-4-(methylamino)pyridin-2-yl]pyrrolo[1,2-b]pyridazine-3-carbonitrile] gave a DC50 of 10 nM. For the setting “read-out: Dmax”, the Dmax turned out to be 116%.

`CNc1cc(-c2ccc3cc(C#N)cnn23)ncc1-c1nnc(N2CCN(CC3CCN(c4ccc(C5CCC(=O)NC5=O)cc4)CC3)CC2)s1` (racemic) [Example 79, rac-7-[5-(5-{4-[(1-{4-[(3R)-2,6-dioxopiperidin-3-yl]phenyl}piperidin-4-yl)methyl]piperazin-1-yl}-1,3,4-thiadiazol-2-yl)-4-(methylamino)pyridin-2-yl]pyrrolo[1,2-b]pyridazine-3-carbonitrile] showed a DC50 of 21 nM. Besides, the Dmax (read-out: Dmax) worked out at 115%.

Compound `CNc1cc(-c2ccc3cc(C#N)cnn23)ncc1-c1nnc(C23CCC(C(=O)N4CCN(c5ccc(C6CCC(=O)NC6=O)cn5)CC4)(CC2)CC3)s1` (racemic) [Example 27, rac-7-(5-{5-[4-(4-{5-[(3R)-2,6-dioxopiperidin-3-yl]pyridin-2-yl}piperazine-1-carbonyl)bicyclo[2.2.2]octan-1-yl]-1,3,4-thiadiazol-2-yl}-4-(methylamino)pyridin-2-yl)pyrrolo[1,2-b]pyridazine-3-carbonitrile] returned a DC50 of 12 nM. The Dmax (read-out: Dmax) amounted to 101%.
